Test results from US9180155B2, “Compositions from Nigella sativa” (Bio Nexus, Ltd, priority 2013, dated 2015).

Test system: Caco-2 monolayers
Test: LPS/H2O2-mediated loss of TEER in Caco-2 monolayers
Format: cell-based, human
Settings: LPS/H2O2 control = 100, 3 h; μg TQ equivalents/mL: Thymoquinone 5.0, NS8 0.11, NS9 0.99, NS10 0.012, NSSpent#2 0.0005; NSSpent#1 5 μg/mL; listed as TQ
Source text: The protocol for growing and differentiation the human Caco-2 colon andenocarcinoma cells was a modification of Protocol 3 as described by Yamashita et al. [[…]., and Furuyama, Y. 2002) New and better protocols for a short-term Caco-2 cell culture system, J Pharm Sci 91, 669-679]. Caco-2 Human Colon Adenocarcinoma cells were obtained from ATCC (Rockville, Md.; catalog #HTB-37) and maintained in a growth media: DMEM (Dulbecco's Modified Eagles Medium 1×) containing L-glutamine, glucose; Cellgro catalog #35-010CV with the following additions: (1) Penicillin (5,000 IU/mL)/Streptomycin (5,000 μg/mL) Cellgro catalog #30-001C1, (2) 10% FBS-Fetal Bovine Serum, Characterized; Hyclone catalog #SH30071.3, and (3) 1% NEAA-Non Essential Amino Acids; Cellgro catalog #25-025-CI; cells were cultured at 37 C in a humidified air-5% CO2 atmosphere in T175 flasks. BIOCOAT^R HTS Caco-2 Assay System kits (Becton Dickinson, N.J.; catalog #354801) consisting of 24-well fibrillar collagen coated inserts and feeder trays were used in all experiments and plated as follows. Media was removed from the T175 flasks and cells were washed with 10 mLs PBS (phosphate buffered saline 1× without Ca^++, without Mg^++; Cellgro #25-053-CI). […]

CC1=CC(=O)C(C(C)C)=CC1=O [Thymoquinone, thymoquinone]
Relative Loss of TEER: no effect
